Columns and labels:
rNav1.7 = rNav1.7 (Rattus norvegicus, UniProt O08562); assay: cell-based; conditions: for IC50: PatchXpress, tonic block, rat Nav1.7, read-out: PX rNav1.7 Tonic IC50; for rNav1.7/hNav1.7: ratio of PX tonic IC50, rat Nav1.7 over human Nav1.7
mNav1.7 = mNav1.7 (Mus musculus, UniProt Q62205); assay: cell-based; conditions: for IC50: PatchXpress, tonic block, mouse Nav1.7, read-out: PX mNav1.7 Tonic IC50; for mNav1.7/hNav1.7: ratio of PX tonic IC50, mouse Nav1.7 over human Nav1.7
Chain of mNav1.7 (Q62205 whole entry): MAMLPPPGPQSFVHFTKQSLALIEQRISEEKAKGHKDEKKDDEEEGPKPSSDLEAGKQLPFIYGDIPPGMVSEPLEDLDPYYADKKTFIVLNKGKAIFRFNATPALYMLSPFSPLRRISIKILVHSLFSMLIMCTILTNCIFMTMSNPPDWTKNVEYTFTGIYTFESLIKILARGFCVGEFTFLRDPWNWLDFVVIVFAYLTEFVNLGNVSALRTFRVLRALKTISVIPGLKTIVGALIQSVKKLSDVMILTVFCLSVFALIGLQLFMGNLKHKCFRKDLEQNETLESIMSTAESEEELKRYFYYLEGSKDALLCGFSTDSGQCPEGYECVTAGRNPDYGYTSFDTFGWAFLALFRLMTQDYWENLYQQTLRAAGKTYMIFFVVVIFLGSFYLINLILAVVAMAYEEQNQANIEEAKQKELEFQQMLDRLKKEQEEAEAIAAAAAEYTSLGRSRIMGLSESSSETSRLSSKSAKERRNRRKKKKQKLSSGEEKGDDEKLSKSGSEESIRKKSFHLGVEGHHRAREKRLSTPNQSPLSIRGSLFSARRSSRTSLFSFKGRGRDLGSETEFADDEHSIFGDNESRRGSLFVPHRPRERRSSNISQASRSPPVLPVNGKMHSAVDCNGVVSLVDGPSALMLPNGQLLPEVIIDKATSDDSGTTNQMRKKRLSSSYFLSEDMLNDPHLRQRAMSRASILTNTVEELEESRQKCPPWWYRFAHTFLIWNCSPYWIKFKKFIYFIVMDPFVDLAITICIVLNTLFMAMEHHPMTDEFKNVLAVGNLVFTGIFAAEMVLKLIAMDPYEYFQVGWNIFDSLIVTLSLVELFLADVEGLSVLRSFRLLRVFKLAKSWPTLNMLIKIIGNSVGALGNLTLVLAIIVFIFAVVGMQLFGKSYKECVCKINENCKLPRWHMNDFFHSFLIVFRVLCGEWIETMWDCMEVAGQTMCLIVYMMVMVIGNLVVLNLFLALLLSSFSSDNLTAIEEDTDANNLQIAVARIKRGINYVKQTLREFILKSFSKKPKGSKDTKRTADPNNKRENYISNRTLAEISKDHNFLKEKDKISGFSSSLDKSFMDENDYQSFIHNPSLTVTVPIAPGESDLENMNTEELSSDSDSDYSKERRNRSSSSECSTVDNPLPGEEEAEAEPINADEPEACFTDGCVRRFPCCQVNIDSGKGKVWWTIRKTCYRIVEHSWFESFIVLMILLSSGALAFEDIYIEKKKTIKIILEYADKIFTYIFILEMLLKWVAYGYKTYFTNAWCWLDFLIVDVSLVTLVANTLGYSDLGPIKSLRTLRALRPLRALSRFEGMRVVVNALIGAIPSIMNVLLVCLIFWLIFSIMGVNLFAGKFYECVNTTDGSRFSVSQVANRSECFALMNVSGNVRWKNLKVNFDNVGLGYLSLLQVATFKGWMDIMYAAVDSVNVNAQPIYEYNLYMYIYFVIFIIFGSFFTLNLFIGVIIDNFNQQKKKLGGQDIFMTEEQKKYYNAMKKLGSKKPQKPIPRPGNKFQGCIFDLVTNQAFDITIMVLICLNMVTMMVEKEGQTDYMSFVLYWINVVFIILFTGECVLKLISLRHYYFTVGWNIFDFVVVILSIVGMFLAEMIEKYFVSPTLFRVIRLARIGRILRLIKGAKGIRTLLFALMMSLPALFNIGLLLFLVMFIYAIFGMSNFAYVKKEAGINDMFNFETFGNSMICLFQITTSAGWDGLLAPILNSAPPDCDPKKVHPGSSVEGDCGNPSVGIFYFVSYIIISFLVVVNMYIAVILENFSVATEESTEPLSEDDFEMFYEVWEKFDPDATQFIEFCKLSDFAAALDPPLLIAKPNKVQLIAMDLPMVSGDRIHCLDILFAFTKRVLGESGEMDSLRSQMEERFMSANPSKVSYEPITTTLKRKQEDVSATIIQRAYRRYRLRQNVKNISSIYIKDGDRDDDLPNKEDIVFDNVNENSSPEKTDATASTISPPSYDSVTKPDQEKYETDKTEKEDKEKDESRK

Chain of rNav1.7 (O08562 whole entry): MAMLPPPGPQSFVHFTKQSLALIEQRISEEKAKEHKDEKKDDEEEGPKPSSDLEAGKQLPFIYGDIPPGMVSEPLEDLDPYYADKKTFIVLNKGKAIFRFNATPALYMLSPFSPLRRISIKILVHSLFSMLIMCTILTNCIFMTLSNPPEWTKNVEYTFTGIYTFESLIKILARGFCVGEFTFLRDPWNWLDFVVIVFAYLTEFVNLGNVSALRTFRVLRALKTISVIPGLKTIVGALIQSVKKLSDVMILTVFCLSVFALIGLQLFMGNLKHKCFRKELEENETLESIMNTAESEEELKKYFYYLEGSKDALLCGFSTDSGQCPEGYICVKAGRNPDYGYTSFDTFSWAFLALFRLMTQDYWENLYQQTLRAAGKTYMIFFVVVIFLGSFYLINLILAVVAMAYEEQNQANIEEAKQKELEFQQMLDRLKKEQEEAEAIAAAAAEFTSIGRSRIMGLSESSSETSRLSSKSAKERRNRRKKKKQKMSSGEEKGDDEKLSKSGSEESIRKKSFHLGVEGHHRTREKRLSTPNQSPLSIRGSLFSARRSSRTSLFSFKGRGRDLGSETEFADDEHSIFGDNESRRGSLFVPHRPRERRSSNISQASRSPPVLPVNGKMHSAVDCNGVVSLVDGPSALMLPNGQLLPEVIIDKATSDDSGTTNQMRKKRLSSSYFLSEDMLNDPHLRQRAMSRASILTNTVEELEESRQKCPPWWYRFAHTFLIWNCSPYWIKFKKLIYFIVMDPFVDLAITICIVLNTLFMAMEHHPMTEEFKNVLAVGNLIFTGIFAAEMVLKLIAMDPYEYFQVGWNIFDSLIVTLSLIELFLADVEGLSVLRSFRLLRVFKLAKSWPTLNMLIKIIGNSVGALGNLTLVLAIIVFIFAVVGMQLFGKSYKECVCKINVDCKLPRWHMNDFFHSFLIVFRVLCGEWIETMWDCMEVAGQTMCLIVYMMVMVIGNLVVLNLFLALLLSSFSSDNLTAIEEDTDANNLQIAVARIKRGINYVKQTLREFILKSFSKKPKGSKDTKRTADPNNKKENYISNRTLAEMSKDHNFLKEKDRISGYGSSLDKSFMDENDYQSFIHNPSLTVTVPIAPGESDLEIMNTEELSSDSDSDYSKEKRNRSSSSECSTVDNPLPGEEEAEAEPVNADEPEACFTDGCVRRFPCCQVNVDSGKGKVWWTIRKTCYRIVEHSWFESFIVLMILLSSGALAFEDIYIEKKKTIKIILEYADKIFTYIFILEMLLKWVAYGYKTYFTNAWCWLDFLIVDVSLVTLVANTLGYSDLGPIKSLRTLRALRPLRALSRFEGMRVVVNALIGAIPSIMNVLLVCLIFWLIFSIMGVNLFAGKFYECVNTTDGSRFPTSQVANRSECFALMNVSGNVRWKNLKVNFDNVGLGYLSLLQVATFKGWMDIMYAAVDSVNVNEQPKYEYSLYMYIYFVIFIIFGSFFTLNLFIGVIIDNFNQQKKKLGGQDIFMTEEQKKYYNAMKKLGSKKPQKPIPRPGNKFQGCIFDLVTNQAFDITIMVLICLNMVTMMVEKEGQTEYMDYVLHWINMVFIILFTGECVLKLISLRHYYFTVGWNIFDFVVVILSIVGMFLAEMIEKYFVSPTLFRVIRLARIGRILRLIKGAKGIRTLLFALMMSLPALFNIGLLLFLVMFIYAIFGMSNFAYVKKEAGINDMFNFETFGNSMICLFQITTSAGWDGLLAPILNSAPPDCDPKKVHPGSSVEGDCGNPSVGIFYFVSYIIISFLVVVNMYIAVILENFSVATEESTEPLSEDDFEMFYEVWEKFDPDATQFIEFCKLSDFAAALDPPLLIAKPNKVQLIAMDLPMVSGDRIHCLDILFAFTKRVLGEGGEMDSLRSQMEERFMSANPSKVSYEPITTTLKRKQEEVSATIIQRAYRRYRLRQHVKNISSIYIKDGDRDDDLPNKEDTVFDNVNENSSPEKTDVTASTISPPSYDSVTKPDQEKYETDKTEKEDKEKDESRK

SMILES	IC50 (rNav1.7) [nM]	rNav1.7/hNav1.7 (rNav1.7)	IC50 (mNav1.7) [nM]	mNav1.7/hNav1.7 (mNav1.7)
C#CC[C@@H]1NC(=O)[C@H](CC(=O)O)NC(=O)[C@@H]2CSSC[C@@H]3NC(=O)[C@H](CCCNC(=N)N)NC(=O)[C@H](CC(C)C)NC(=O)CNC(=O)[C@H](CCC(=O)O)NC(=O)[C@H](CSSC[C@H](NC(=O)[C@H](Cc4ccc(O)cc4)NC(=O)[C@@H](N)CC#N)C(=O)N[C@@H](CCC(N)=O)C(=O)N[C@@H](CCCCN)C(=O)N[C@@H](Cc4c[nH]c5ccccc45)C(=O)N[C@@H](CCCC)C(=O)N[C@@H](Cc4c[nH]c5ccccc45)C(=O)N[C@@H]([C@@H](C)O)C(=O)N2)NC(=O)[C@H](CSSC[C@@H](C(=O)N[C@@H](CCCNC(=N)N)C(=O)N[C@@H](CCCCN)C(=O)N[C@@H](CCC(=O)O)C(=O)N[C@H](C(N)=O)[C@@H](C)CC)NC(=O)[C@H](Cc2c[nH]c4ccccc24)NC(=O)[C@H](CC(C)C)NC(=O)[C@H](CCCCN)NC3=O)NC(=O)[C@H](C)NC(=O)[C@H](CCCNC(=N)N)NC(=O)[C@H](CCCCN)NC1=O [CyA-[Nle6; Pra11; Glu28]JzTx-V(1-29)]	2.24	11.58	4.04	20.87
CCCC[C@@H]1NC(=O)[C@H](Cc2c[nH]c3ccccc23)NC(=O)[C@H](CCCCN)NC(=O)[C@H](CCC(N)=O)NC(=O)[C@@H](NC(=O)[C@H](Cc2ccc(O)cc2)NC(=O)[C@@H](N)Cc2cn(CCOCCOCCOCCOCCOCCOCCOCCOCCOCCOCCN)nn2)CSSC[C@@H]2NC(=O)[C@@H]3CSSC[C@@H](C(=O)N[C@@H](CCCNC(=N)N)C(=O)N[C@@H](CCCCN)C(=O)N[C@H](C(=O)N[C@H](C(N)=O)[C@@H](C)CC)[C@@H](C)CC)NC(=O)[C@H](Cc4c[nH]c5ccccc45)NC(=O)[C@H](CC(C)C)NC(=O)[C@H](CCCCN)NC(=O)[C@H](CSSC[C@H](NC(=O)[C@H]([C@@H](C)O)NC(=O)[C@H](Cc4c[nH]c5ccccc45)NC1=O)C(=O)N[C@@H](CC(=O)O)C(=O)N[C@@H](CO)C(=O)N[C@@H](CCCCN)C(=O)N[C@@H](CCCNC(=N)N)C(=O)N[C@@H](C)C(=O)N3)NC(=O)[C@H](CCCNC(=N)N)NC(=O)[C@H](CC(C)C)NC(=O)CNC(=O)[C@H](CCC(=O)O)NC2=O [Atz(NPEG9)-[Nle6]JzTx-V(1-29)]		0.22		1.65
C#CC[C@H](N)C(=O)N[C@@H](Cc1ccc(O)cc1)C(=O)N[C@H]1CSSC[C@@H]2NC(=O)[C@@H]3CSSC[C@@H](C(=O)N[C@@H](CCCNC(=N)N)C(=O)N[C@@H](CCCCN)C(=O)N[C@@H](CCC(=O)O)C(=O)N[C@@H](Cc4ccccc4)C(N)=O)NC(=O)[C@H](Cc4c[nH]c5ccccc45)NC(=O)[C@H](CC(C)C)NC(=O)[C@H](CCCCN)NC(=O)[C@H](CSSC[C@H](NC(=O)[C@H]([C@@H](C)O)NC(=O)[C@H](Cc4c[nH]c5ccccc45)NC(=O)[C@H](CCCC)NC(=O)[C@H](Cc4c[nH]c5ccccc45)NC(=O)[C@H](CCCCN)NC(=O)[C@H](CCC(N)=O)NC1=O)C(=O)N[C@@H](CC(=O)O)C(=O)N[C@@H](CO)C(=O)N[C@@H](CCCCN)C(=O)N[C@@H](CCCNC(=N)N)C(=O)N[C@@H](C)C(=O)N3)NC(=O)[C@H](CCCNC(=N)N)NC(=O)[C@H](CC(C)C)NC(=O)CNC(=O)[C@H](CCC(=O)O)NC2=O [Pra-[Nle6; Glu28; Phe29]JzTx-V(1-29)]	0.296	0.76	3.45	8.90

— patent publication US10344060B2 (priority 2013, dated 2019)
